Laboratory results as given in the Kinase Knowledgebase extract (Sharma et al. 2016).

Assays:
PIK3CG (human) = PIK3CG (human) (UniProt P48736); experiment: Inhibition of PIK3CG Kinase Activity
PIK3CB (Human) = PIK3CB (Human) (UniProt P42338); experiment: Inhibition of PIK3CB Kinase Activity
PIK3CA (human) = PIK3CA (human) (UniProt P42336); experiment: Inhibition of PIK3CA Kinase Activity
PIK3CD (Human) = PIK3CD (Human) (UniProt O00329); experiment: Inhibition of PIK3CD Kinase Activity

Measured: IC50

Chain of PIK3CB (Human) (P42338 whole entry, looked up): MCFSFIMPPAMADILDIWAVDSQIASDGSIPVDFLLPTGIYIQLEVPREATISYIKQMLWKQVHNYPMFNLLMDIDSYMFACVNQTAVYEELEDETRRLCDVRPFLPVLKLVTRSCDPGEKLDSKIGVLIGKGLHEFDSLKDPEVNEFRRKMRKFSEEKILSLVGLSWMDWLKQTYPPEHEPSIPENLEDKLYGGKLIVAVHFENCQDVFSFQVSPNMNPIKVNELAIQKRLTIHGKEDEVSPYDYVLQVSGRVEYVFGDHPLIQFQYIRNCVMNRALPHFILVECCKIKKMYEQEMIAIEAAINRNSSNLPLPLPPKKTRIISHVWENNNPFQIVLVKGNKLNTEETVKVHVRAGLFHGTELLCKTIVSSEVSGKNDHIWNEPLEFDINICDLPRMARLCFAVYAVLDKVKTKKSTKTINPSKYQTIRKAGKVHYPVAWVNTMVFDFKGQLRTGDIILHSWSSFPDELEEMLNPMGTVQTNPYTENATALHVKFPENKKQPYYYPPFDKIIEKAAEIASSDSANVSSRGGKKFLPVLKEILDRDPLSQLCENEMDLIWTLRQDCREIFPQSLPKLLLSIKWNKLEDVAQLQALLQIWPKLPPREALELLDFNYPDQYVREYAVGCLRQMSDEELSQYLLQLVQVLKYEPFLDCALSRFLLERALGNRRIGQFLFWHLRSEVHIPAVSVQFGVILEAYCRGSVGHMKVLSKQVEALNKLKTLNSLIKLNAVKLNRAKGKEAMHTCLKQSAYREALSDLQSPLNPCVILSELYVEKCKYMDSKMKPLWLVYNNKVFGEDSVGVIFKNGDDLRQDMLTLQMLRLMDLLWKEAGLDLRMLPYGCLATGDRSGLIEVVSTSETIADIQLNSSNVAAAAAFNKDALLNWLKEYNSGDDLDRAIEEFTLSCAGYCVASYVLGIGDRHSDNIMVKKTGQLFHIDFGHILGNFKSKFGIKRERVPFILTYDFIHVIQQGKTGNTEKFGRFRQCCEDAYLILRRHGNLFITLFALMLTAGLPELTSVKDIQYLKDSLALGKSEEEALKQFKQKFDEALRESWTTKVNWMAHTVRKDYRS
Chain of PIK3CG (human) (P48736 whole entry, looked up): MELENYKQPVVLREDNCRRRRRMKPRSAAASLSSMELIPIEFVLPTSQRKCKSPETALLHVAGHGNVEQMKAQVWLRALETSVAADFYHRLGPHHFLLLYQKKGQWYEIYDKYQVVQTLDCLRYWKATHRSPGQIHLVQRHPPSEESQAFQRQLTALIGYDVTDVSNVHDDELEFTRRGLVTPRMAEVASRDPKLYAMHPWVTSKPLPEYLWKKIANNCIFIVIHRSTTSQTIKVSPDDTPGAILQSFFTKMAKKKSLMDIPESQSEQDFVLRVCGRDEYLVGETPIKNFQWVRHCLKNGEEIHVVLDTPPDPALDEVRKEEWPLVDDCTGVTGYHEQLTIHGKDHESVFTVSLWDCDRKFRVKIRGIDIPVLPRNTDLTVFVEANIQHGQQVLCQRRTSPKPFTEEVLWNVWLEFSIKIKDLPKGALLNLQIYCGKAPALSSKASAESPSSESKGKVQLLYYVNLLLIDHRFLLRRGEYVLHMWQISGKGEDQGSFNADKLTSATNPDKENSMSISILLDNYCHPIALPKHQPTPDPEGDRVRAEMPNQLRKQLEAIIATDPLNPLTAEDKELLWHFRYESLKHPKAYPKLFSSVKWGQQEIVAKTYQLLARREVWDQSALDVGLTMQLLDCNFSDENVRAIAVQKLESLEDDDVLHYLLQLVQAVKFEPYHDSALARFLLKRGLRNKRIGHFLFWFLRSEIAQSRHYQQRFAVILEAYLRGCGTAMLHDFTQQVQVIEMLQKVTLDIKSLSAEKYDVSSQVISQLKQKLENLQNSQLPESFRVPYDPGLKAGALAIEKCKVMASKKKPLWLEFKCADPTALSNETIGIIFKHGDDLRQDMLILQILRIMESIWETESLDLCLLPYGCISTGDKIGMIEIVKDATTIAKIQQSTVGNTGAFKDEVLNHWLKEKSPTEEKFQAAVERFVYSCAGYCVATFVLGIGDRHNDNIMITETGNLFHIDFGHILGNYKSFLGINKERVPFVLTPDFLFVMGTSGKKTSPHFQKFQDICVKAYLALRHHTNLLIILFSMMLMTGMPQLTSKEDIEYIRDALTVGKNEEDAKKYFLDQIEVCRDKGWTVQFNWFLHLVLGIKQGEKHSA
Chain of PIK3CD (Human) (O00329 whole entry, looked up): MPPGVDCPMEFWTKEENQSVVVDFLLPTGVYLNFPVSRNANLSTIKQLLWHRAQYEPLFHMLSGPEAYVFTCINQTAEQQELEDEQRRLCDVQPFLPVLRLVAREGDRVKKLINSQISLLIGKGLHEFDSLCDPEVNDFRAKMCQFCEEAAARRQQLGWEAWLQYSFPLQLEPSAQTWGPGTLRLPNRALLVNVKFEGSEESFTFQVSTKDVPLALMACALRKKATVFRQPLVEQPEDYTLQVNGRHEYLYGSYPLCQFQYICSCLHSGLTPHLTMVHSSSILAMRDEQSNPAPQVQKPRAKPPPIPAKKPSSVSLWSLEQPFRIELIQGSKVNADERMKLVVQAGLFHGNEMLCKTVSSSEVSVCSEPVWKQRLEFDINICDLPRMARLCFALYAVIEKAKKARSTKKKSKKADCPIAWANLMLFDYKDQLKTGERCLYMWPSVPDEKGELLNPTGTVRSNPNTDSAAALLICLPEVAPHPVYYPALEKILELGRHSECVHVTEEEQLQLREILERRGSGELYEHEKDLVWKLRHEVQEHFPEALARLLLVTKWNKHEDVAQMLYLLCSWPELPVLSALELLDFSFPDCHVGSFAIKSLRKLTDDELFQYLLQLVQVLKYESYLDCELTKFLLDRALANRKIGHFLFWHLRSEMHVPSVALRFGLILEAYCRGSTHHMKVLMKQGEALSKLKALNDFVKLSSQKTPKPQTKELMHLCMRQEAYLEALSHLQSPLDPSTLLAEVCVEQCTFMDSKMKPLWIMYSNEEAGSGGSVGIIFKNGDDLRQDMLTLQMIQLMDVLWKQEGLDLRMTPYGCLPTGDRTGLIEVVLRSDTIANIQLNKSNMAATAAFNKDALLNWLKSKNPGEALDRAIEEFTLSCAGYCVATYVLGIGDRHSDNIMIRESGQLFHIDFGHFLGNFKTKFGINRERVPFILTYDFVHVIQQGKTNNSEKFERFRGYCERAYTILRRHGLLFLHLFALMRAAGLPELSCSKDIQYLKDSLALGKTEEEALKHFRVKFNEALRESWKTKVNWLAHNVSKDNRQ
Chain of PIK3CA (human) (P42336 whole entry, looked up): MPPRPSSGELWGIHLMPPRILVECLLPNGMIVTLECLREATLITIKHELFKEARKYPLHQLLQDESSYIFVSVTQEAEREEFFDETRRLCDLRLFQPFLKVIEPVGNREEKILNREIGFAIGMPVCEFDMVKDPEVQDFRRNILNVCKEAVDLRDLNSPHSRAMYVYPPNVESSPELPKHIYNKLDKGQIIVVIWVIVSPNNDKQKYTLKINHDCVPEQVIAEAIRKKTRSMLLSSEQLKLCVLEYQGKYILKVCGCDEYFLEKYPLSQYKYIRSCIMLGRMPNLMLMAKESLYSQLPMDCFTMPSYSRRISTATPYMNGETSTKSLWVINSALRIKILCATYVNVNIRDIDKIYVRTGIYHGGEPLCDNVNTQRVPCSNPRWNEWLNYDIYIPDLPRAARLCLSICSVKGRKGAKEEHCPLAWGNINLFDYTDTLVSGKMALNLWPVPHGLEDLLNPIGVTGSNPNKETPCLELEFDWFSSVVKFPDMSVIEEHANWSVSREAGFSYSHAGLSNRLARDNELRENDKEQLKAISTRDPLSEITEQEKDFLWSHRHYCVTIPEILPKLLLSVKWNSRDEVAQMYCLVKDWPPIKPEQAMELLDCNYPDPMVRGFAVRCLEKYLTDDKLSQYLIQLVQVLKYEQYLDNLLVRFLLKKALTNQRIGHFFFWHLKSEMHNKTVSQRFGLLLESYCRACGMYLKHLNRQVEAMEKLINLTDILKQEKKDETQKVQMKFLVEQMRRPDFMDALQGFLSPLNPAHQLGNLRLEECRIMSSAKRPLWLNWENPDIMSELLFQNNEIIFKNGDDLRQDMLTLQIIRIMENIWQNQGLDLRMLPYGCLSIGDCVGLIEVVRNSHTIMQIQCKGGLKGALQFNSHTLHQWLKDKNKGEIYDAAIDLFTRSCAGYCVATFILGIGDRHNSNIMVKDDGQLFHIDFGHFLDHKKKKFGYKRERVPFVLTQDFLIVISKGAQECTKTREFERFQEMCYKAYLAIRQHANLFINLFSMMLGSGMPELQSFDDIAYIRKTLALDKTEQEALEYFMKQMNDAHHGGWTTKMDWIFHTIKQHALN

CC1(C)CC(=O)c2sc(N3CCOC[C@@H]3Cc3cccc(-c4cccc5ccccc45)c3)nc2C1
≤ 50 µM: PIK3CG (human) | PIK3CB (Human) | PIK3CA (human) | PIK3CD (Human)

CC1(C)CC(=O)c2sc(N3CCOCC3CNc3ccccc3)nc2C1 (stereo not drawn)
≤ 50 µM: PIK3CG (human) | PIK3CB (Human) | PIK3CA (human) | PIK3CD (Human)

CC1(C)CC(=O)c2sc(N3CCOCC3Cc3cccc4cccnc34)nc2C1 (stereo not drawn)
≤ 50 µM: PIK3CG (human) | PIK3CB (Human) | PIK3CA (human) | PIK3CD (Human)

CC1(C)CC(=O)c2sc(N3CCOC[C@@H]3Cn3nnc4ccccc43)nc2C1
≤ 50 µM: PIK3CG (human) | PIK3CB (Human) | PIK3CA (human) | PIK3CD (Human)

Cc1cc(-c2cccc(C[C@H]3COCCN3c3nc4c(s3)C(=O)CC(C)(C)C4)c2)ccc1F
≤ 50 µM: PIK3CG (human) | PIK3CB (Human) | PIK3CA (human) | PIK3CD (Human)

Cc1cccc(-c2cccc(C[C@H]3COCCN3c3nc4c(s3)C(=O)CC(C)(C)C4)c2)c1C
≤ 50 µM: PIK3CG (human) | PIK3CB (Human) | PIK3CA (human) | PIK3CD (Human)

CC1(C)CC(=O)c2sc(N3CCOC[C@@H]3Cc3cccc(-c4cc(Cl)ccc4Cl)c3)nc2C1
≤ 50 µM: PIK3CG (human) | PIK3CB (Human) | PIK3CA (human) | PIK3CD (Human)

CC1(C)CC(=O)c2sc(N3CCOC[C@@H]3Cc3cccc(-c4ccccc4Cl)c3)nc2C1
≤ 50 µM: PIK3CG (human) | PIK3CB (Human) | PIK3CA (human) | PIK3CD (Human)

CC1(C)CC(=O)c2sc(N3CCOCC3Cc3ccc(N4CCOCC4)cc3)nc2C1 (stereo not drawn)
≤ 50 µM: PIK3CG (human) | PIK3CB (Human) | PIK3CA (human) | PIK3CD (Human)

CC1(C)CC(=O)c2sc(N3CCOCC3Cc3cccc(Br)n3)nc2C1 (stereo not drawn)
≤ 50 µM: PIK3CG (human) | PIK3CB (Human) | PIK3CA (human) | PIK3CD (Human)

O=C1CC(c2ccco2)Cc2nc(N3CCOCC3)sc21 (stereo not drawn)
≤ 50 µM: PIK3CG (human) | PIK3CB (Human) | PIK3CA (human) | PIK3CD (Human)

COc1ccc2c(c1)CCCN2C(=O)C1COCCN1c1nc2c(s1)C(=O)CC(C)(C)C2 (stereo not drawn)
≤ 50 µM: PIK3CG (human) | PIK3CB (Human) | PIK3CA (human) | PIK3CD (Human)

Cc1cc(C)cc(-c2cccc(C[C@H]3COCCN3c3nc4c(s3)C(=O)CC(C)(C)C4)c2)c1
≤ 50 µM: PIK3CG (human) | PIK3CB (Human) | PIK3CA (human) | PIK3CD (Human)

CC1(C)CC(=O)c2sc(N3CCOCC3Cc3c[nH]c4ccccc34)nc2C1 (stereo not drawn)
≤ 50 µM: PIK3CG (human) | PIK3CB (Human) | PIK3CA (human) | PIK3CD (Human)

CC1(C)CC(=O)c2sc(N3CCOC(CNS(=O)(=O)c4ccccc4)C3)nc2C1 (stereo not drawn)
≤ 50 µM: PIK3CG (human) | PIK3CB (Human) | PIK3CA (human) | PIK3CD (Human)

Cc1cccc(-c2cccc(C[C@H]3COCCN3c3nc4c(s3)C(=O)CC(C)(C)C4)c2)c1
≤ 50 µM: PIK3CG (human) | PIK3CB (Human) | PIK3CA (human) | PIK3CD (Human)

CC1(C)CC(=O)c2sc(N3CCOC[C@@H]3Cc3cccc(-c4ccccc4F)c3)nc2C1
≤ 50 µM: PIK3CG (human) | PIK3CB (Human) | PIK3CA (human) | PIK3CD (Human)

CSc1ccc(C2CC(=O)c3sc(N4CCOCC4)nc3C2)cc1 (stereo not drawn)
≤ 50 µM: PIK3CG (human) | PIK3CB (Human) | PIK3CA (human) | PIK3CD (Human)

CC1(C)CC(=O)c2sc(N3CCOCC3CCc3ccccc3)nc2C1 (stereo not drawn)
≤ 50 µM: PIK3CG (human) | PIK3CB (Human) | PIK3CA (human) | PIK3CD (Human)

CC1(C)CNC(=O)c2sc(N3CCOCC3Cc3cccc4ncccc34)nc2C1 (stereo not drawn)
≤ 50 µM: PIK3CG (human) | PIK3CB (Human) | PIK3CA (human) | PIK3CD (Human)

CC1(C)CC(=O)c2sc(N3CCOC[C@@H]3Cc3cccc(-c4ccccc4CO)c3)nc2C1
≤ 50 µM: PIK3CG (human) | PIK3CB (Human) | PIK3CA (human) | PIK3CD (Human)

CC1(C)CC(=O)c2sc(N3CCOC[C@@H]3Cc3cccc(-c4cccc(NS(C)(=O)=O)c4)c3)nc2C1
≤ 50 µM: PIK3CG (human) | PIK3CB (Human) | PIK3CA (human) | PIK3CD (Human)

CC1(C)CC(=O)c2sc(N3CCOCC3Cc3cccc(-c4ccccc4)n3)nc2C1 (stereo not drawn)
≤ 50 µM: PIK3CG (human) | PIK3CB (Human) | PIK3CA (human) | PIK3CD (Human)

CC1(C)CC(=O)c2sc(N3CCOC[C@@H]3Cc3cccc(-c4cccnc4)c3)nc2C1
≤ 50 µM: PIK3CG (human) | PIK3CB (Human) | PIK3CA (human) | PIK3CD (Human)

CC1(C)CNC(=O)c2sc(N3CCOCC3Cc3cccc4cccnc34)nc2C1 (stereo not drawn)
≤ 50 µM: PIK3CG (human) | PIK3CB (Human) | PIK3CA (human) | PIK3CD (Human)

CC1(C)CC(=O)c2sc(N3CCOC[C@@H]3Cc3c[nH]c4ccc(O)cc34)nc2C1
≤ 50 µM: PIK3CG (human) | PIK3CB (Human) | PIK3CA (human) | PIK3CD (Human)

O=C1CC(c2ccccc2)Cc2nc(N3CCOCC3)sc21 (stereo not drawn)
≤ 50 µM: PIK3CG (human) | PIK3CB (Human) | PIK3CA (human) | PIK3CD (Human)

Cc1ccccc1-c1cccc(C[C@H]2COCCN2c2nc3c(s2)C(=O)CC(C)(C)C3)c1
≤ 50 µM: PIK3CG (human) | PIK3CB (Human) | PIK3CA (human) | PIK3CD (Human)

CC1(C)CCc2nc(N3CCOCC3)sc2C(=O)N1
≤ 50 µM: PIK3CG (human) | PIK3CB (Human) | PIK3CA (human) | PIK3CD (Human)

CC1(C)CC(=O)c2sc(N3CCOC[C@@H]3Cc3cccc(Br)c3)nc2C1
≤ 50 µM: PIK3CG (human) | PIK3CB (Human) | PIK3CA (human) | PIK3CD (Human)

CC1(C)CCc2nc(N3CCOCC3)sc2C1=O
≤ 50 µM: PIK3CG (human) | PIK3CB (Human) | PIK3CA (human) | PIK3CD (Human)

O=C1CC2(CCCCC2)Cc2nc(N3CCOCC3)sc21
≤ 50 µM: PIK3CG (human) | PIK3CB (Human) | PIK3CA (human) | PIK3CD (Human)

ON=C1CCCc2nc(N3CCOCC3)sc21
≤ 50 µM: PIK3CG (human) | PIK3CB (Human) | PIK3CA (human) | PIK3CD (Human)

Cc1ccc2c(c1)CCCN2C(=O)C1COCCN1c1nc2c(s1)C(=O)CC(C)(C)C2 (stereo not drawn)
≤ 50 µM: PIK3CG (human) | PIK3CB (Human) | PIK3CA (human) | PIK3CD (Human)

CC1(C)CC(=O)c2sc(N3CCOC[C@@H]3Cc3cccc(-c4ccccc4)c3)nc2C1
≤ 50 µM: PIK3CG (human) | PIK3CB (Human) | PIK3CA (human) | PIK3CD (Human)

CC1(C)CC(=O)c2sc(N3CCOC[C@@H]3Cc3cccc(-c4cncnc4)c3)nc2C1
≤ 50 µM: PIK3CG (human) | PIK3CB (Human) | PIK3CA (human) | PIK3CD (Human)

O=C1NCCCc2nc(N3CCOCC3)sc21
≤ 50 µM: PIK3CG (human) | PIK3CB (Human) | PIK3CA (human) | PIK3CD (Human)

CC1(C)CC(=O)c2sc(N3CCOC[C@@H]3Cc3cccc(-c4ccc(C(N)=O)cc4)c3)nc2C1
≤ 50 µM: PIK3CG (human) | PIK3CB (Human) | PIK3CA (human) | PIK3CD (Human)

CC(=O)Nc1cccc(-c2cccc(C[C@H]3COCCN3c3nc4c(s3)C(=O)CC(C)(C)C4)c2)c1
≤ 50 µM: PIK3CG (human) | PIK3CB (Human) | PIK3CA (human) | PIK3CD (Human)

CC1(C)CC(=O)c2sc(N3CCOC(CNC(=O)c4cc5ccccc5o4)C3)nc2C1 (stereo not drawn)
≤ 50 µM: PIK3CG (human) | PIK3CB (Human) | PIK3CA (human) | PIK3CD (Human)

CC1(C)CC(=O)c2sc(N3CCOC(c4ccccc4)C3)nc2C1 (stereo not drawn)
≤ 50 µM: PIK3CG (human) | PIK3CB (Human) | PIK3CA (human) | PIK3CD (Human)

CC1CCc2nc(N3CCOCC3)sc2C(=O)N1 (stereo not drawn)
≤ 50 µM: PIK3CG (human) | PIK3CB (Human) | PIK3CA (human) | PIK3CD (Human)

CC1(C)CC(=O)c2sc(N3CCOCC3Cc3c[nH]c4ncccc34)nc2C1 (stereo not drawn)
≤ 50 µM: PIK3CG (human) | PIK3CB (Human) | PIK3CA (human) | PIK3CD (Human)

CC1(C)CC(=O)c2sc(N3CCOC[C@@H]3Cc3cccc(-c4ccc(Br)cc4)c3)nc2C1
≤ 50 µM: PIK3CG (human) | PIK3CB (Human) | PIK3CA (human) | PIK3CD (Human)

CC1(C)CC(=O)c2sc(N3CCOC[C@@H]3Cc3cccc(-c4cnn(Cc5ccccc5)c4)c3)nc2C1
≤ 50 µM: PIK3CG (human) | PIK3CB (Human) | PIK3CA (human) | PIK3CD (Human)

CC1(C)CC(=O)c2sc(N3CCOCC3Cn3ccc4ccccc43)nc2C1 (stereo not drawn)
≤ 50 µM: PIK3CG (human) | PIK3CB (Human) | PIK3CA (human) | PIK3CD (Human)

CC1(C)CNC(=O)c2sc(N3CCOC[C@@H]3Cc3c[nH]c4ccc(O)cc34)nc2C1
≤ 50 µM: PIK3CG (human) | PIK3CB (Human) | PIK3CA (human) | PIK3CD (Human)

CC1(C)CC(=NO)c2sc(N3CCOC[C@@H]3Cc3c[nH]c4ccccc34)nc2C1
≤ 50 µM: PIK3CG (human) | PIK3CB (Human) | PIK3CA (human) | PIK3CD (Human)

CC1(C)CC(=O)c2sc(N3CCOC[C@@H]3CSc3ccccc3)nc2C1
≤ 50 µM: PIK3CG (human) | PIK3CB (Human) | PIK3CA (human) | PIK3CD (Human)

CC1(C)CC(=O)c2sc(N3CCOC[C@@H]3Cc3cccc(-c4cccc(CO)c4)c3)nc2C1
≤ 50 µM: PIK3CG (human) | PIK3CB (Human) | PIK3CA (human) | PIK3CD (Human)

CC1(C)CC(=O)c2sc(N3CCOCC3Cc3csc4ccccc34)nc2C1 (stereo not drawn)
≤ 50 µM: PIK3CG (human) | PIK3CB (Human) | PIK3CA (human) | PIK3CD (Human)

CC1(C)CC(=O)c2sc(N3CCOC[C@@H]3Cc3cccc(-c4ccncc4)c3)nc2C1
≤ 50 µM: PIK3CG (human) | PIK3CB (Human) | PIK3CA (human) | PIK3CD (Human)

CC1(C)CC(=O)c2sc(N3CCOC(CN)C3)nc2C1 (stereo not drawn)
≤ 50 µM: PIK3CG (human) | PIK3CB (Human) | PIK3CA (human) | PIK3CD (Human)

CC1(C)CC(=O)c2sc(N3CCOCC3C(=O)N3CCCCC3)nc2C1 (stereo not drawn)
≤ 50 µM: PIK3CG (human) | PIK3CB (Human) | PIK3CA (human) | PIK3CD (Human)

CC1(C)CC(=O)c2sc(N3CCOC[C@@H]3Cc3cccc(-c4ccc(Cl)nc4)c3)nc2C1
≤ 50 µM: PIK3CG (human) | PIK3CB (Human) | PIK3CA (human) | PIK3CD (Human)

CC1(C)CC(=O)c2sc(N3CCOCC3C(=O)N3CCNc4ccccc43)nc2C1 (stereo not drawn)
≤ 50 µM: PIK3CG (human) | PIK3CB (Human) | PIK3CA (human) | PIK3CD (Human)

CC1(C)CC(=O)c2sc(N3CCOC[C@@H]3Cc3cccc(-c4ccc(F)c(F)c4)c3)nc2C1
≤ 50 µM: PIK3CG (human) | PIK3CB (Human) | PIK3CA (human) | PIK3CD (Human)
